# Reference: the supplement of paper PMC5844555
# Key:
# Test in all cases: 3' UTR reporter interaction score (median-centred robust z-score of log2 firefly/Renilla activity); higher = less repression of the 3' UTR reporter
# Details in all cases: HEK293T; 48 h
# PHF6 = system: PHF6
# How it was run: (§1)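 HEK293T cells (10,000/well, 96-well plates) were co-transfected using DharmaFECT Duo with 100 ng firefly luc2P reporter carrying the gene's 3' UTR, 20 ng Renilla pRL-TK control and 2.5 pmol miRNA mimic. Dual-luciferase activities were read 48 h post-transfection. The interaction score is the log-transformed firefly/Renilla ratio as a per-plate robust z-score (median, median absolute deviation), median-centred per miRNA and averaged over at least two independent screens; more negative indicates interaction.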
# FBXW7 = system: FBXW7
# How it was run: as §1
# ZEB2 = system: ZEB2
# How it was run: as §1
# NOTCH1 = system: NOTCH1
# How it was run: as §1
# MYT1L = system: MYT1L
# How it was run: as §1
# MYC = system: MYC
# How it was run: as §1
# TP53 = system: TP53
# How it was run: as §1
# RB1 = system: RB1
# How it was run: as §1
# BRCA2 = system: BRCA2
# How it was run: as §1
# EZH2 = system: EZH2
# How it was run: as §1
# MYB = system: MYB
# How it was run: as §1
# PHOX2B = system: PHOX2B
# How it was run: as §1
# HRAS = system: HRAS
# How it was run: as §1
# MYCN = system: MYCN
# How it was run: as §1
Sequence,3' UTR reporter interaction score (PHF6),3' UTR reporter interaction score (FBXW7),3' UTR reporter interaction score (ZEB2),3' UTR reporter interaction score (NOTCH1),3' UTR reporter interaction score (MYT1L),3' UTR reporter interaction score (MYC),3' UTR reporter interaction score (TP53),3' UTR reporter interaction score (RB1),3' UTR reporter interaction score (BRCA2),3' UTR reporter interaction score (EZH2),3' UTR reporter interaction score (MYB),3' UTR reporter interaction score (PHOX2B),3' UTR reporter interaction score (HRAS),3' UTR reporter interaction score (MYCN)
AACAUUCAUUGCUGUCGGUGGG,0.159,0.243,0.114,-0.249,-0.567,0.124,0.443,0.0638,0.08,0.0847,0.0638,1.46,-0.854,
UAAAGUGCUUAUAGUGCAGGUAG,1.96,-0.632,0.262,0.917,-0.414,-0.207,-0.181,0.204,1.9,-0.364,-0.124,,0.379,-0.791
AGGCACCAGCCAGGCAUUGCUCAGC,0.574,-2.35,-0.849,-0.1,0.327,-0.313,0.444,0.342,,1,0.348,-2.66,-0.411,-0.343
UAAUACUGCCUGGUAAUGAUGAC,2,-0.751,-3.47,-0.616,1.12,1.05,-0.665,0.622,,0.31,-2.25,-1.14,-0.0979,-0.158
UGAUUGUAGCCUUUUGGAGUAGA,0.465,-0.741,-1.2,,-0.331,-1.19,-0.415,-0.751,1.26,0.191,1.56,-0.496,1.52,0.938
GGCUAGCAACAGCGCUUACCU,-0.414,0.164,0.537,-0.508,0.317,-0.989,0.432,0.235,-0.392,,-0.249,0.192,-0.311,0.326
UGAGGUAGGAGGUUGUAUAGU,-0.232,0.127,-0.156,-0.642,-0.34,-2.75,0.0915,,0.75,-3.52,0.624,0.238,0.649,-3.52
GGCAGGUUCUCACCCUCUCUAGG,-0.606,-1.49,-0.268,0.309,-0.84,0.583,-0.0357,,-0.0484,0.162,,-1.4,0.517,0.446
AGAUCAGAAGGUGAUUGUGGCU,1.45,1.15,-0.441,0.74,,-0.231,0.622,-1,0.117,0.782,-2.02,-0.105,0.462,-0.0131
UUUGGCACUAGCACAUUUUUGC,-0.863,-1.69,0.198,0.319,-0.203,0.306,-0.115,0.451,0.322,0.814,,0.531,0.722,0.288
UAGGUAGUUUCCUGUUGUUGG,-0.855,-0.0724,0.639,0.244,-0.34,-0.416,0.913,-0.415,-0.449,0.324,0.0231,0.179,-0.324,
AAAGUGCUUCCUUUUAGAGGC,-0.00693,0.555,0.738,,-0.527,-0.277,0.32,0.31,-0.921,-0.74,-0.24,0.798,-0.194,0.692
UUGAAACAAUCUCUACUGAAC,-1.21,1.05,0.917,0.836,0.3,0.402,-0.126,-1.43,-0.93,0.163,-0.218,0.857,-0.263,
UGUCUUACUCCCUCAGGCACAU,2.68,1.02,-0.976,,-2.22,-0.519,0.565,0.999,0.202,-0.24,-0.229,0.667,-1.06,-1.1
UGUAACAGCAACUCCAUGUGGA,1.94,-1.43,0.401,-0.0483,-0.161,-1.28,-0.515,-0.726,0.232,-1.3,0.809,-2.2,,0.331
UGAGGUAGUAGGUUGUAUGGUU,0.487,0.348,0.734,,0.588,-2.26,-0.643,,0.199,-3.88,0.761,-0.072,0.339,-4.05
AAUAUAACACAGAUGGCCUGU,,0.647,-0.625,0.989,-0.827,0.886,0.139,-1.07,-0.646,0.634,-0.573,0.795,0.155,
UGUAAACAUCCUCGACUGGAAG,-2.11,0.336,-1.69,,0.672,-0.476,-0.35,0.575,-0.114,0.0496,0.498,,0.246,-0.46
AAUUGCACGGUAUCCAUCUGUA,0.891,-6.72,-3.51,-0.751,,1.4,-1.12,1.19,0.52,-0.862,0.44,-1.97,0.777,0.653
UAGCAGCACAUAAUGGUUUGUG,1,-3.3,1.33,0.0154,-2.1,1.03,-0.405,-0.091,-0.161,,-1.32,0.742,1.55,-0.121
CACGCUCAUGCACACACCCAC,-3.04,-1.61,1.26,0.398,0.0877,0.38,1.21,-0.279,0.0228,0.315,,-1.58,,-0.371
